For data set [1], the target named is T1, hM1 (Homo sapiens, UniProt P11229).
T1 sequence (P11229 1-460): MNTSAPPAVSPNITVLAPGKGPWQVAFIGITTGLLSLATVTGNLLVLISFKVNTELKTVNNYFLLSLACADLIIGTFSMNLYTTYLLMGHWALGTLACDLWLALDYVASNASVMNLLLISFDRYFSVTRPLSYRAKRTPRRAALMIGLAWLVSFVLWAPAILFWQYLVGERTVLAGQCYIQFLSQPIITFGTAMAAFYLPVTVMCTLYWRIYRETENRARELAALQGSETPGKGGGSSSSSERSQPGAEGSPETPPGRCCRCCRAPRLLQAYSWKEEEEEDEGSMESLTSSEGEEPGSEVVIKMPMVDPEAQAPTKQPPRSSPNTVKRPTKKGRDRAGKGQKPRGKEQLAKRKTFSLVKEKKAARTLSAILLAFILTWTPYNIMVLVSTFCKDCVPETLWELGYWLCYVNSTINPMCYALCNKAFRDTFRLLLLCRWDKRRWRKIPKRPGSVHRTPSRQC
Description: hM1 antagonist calcium mobilization assay. It counts as cell-based. The conditions noted are these: for fold loss in potency/activity relative to ML012: hM1, versus ML012; for hM1 antagonist activity in words: highest concentration tested 30 μM.

Data set [2] is described as follows: in vitro DMPK prediction of clearance. It is filed as in vitro ADME.
The nature of data set [3]: rat pharmacokinetics and CNS exposure. The conditions noted are these: dosed orally at 10 mg/kg. It is filed as in vivo.
The test system of another data set is rat M1–5 receptors. Description: selectivity across the rat mAChRs, calcium mobilization assay. It counts as cell-based. The following applies: Figure 4.
The target in another data set is T2, rM1 (Rattus norvegicus, UniProt P08482).
T2 sequence (P08482 1-460): T1 sequence (P11229 1-460) with A5V, T254S, P309S, R320K, A337G, I413V
The experiment in a line: rat M1 antagonist calcium mobilization assay. It is filed as cell-based.

Data set [4] addresses T1, hM1. The conditions noted are these: read-out: IC50 for ML012 previously reported; cited from earlier work.
Another data set relates to contextual freezing. The following applies: at doses that reduced seizures; cited from earlier work.
The subject of data set [5] is pilocarpine-induced seizures. The conditions noted are these: rodent models; cited from earlier work.

Molecules are shown by their SMILES. Residue numbers refer to the chain shown, from its start. Where two headings read alike, the source gives them in different places.

On to `O=C(CCNS(=O)(=O)c1cccc2nsnc12)N1CCN(c2ccccn2)CC1` [Compound 6d], for which, on hM1 [1], the “fold loss in potency/activity relative to ML012” value is “roughly 14 fold”.

As for `O=S(=O)(NCCCN1CCN(c2ccncc2)CC1)c1cccc2nsnc12` [Compound 7], on hM1 [1], the “fold loss in potency/activity relative to ML012” value is reported as “greater than 14 fold”.

For the molecule `O=C(C(F)CNS(=O)(=O)c1cccc2nonc12)N1CCN(c2ccncc2)CC1` (stereo not shown) [Compound 9], on hM1 [1] (hM1, versus 13b), the “fold decrease in potency relative to 13b” value was “roughly 2 fold”.

With `C[C@H](CC(=O)N1CCN(c2ccncc2)CC1)NS(=O)(=O)c1cccc2nonc12` [Compound 10], the “hM1 antagonist activity in words” value on hM1 [1] is “completely inactive”.

With `CN(CCC(=O)N1CCN(c2ccncc2)CC1)S(=O)(=O)c1cccc2nsnc12` [Compound 12], the “fold loss in potency/activity relative to ML012” value on hM1 [1] is reported as “greater than 14 fold”.

For `O=C(CCNS(=O)(=O)c1cccc2nonc12)N1CCN(c2ccc(Br)cn2)CC1` [Compound 13a], the “fold decrease in activity relative to sulfur analog 6j” value on hM1 [1] (hM1, versus 6j) came out at 3 fold.

For `O=C(CCNS(=O)(=O)c1cccc2nonc12)N1CCN(c2ccncc2)CC1` [Compound 13b], at hM1 [1], the IC50 was 4.5 µM and the “fold loss in potency/activity relative to ML012” value is listed as 4 fold.

For `O=C(CCNS(=O)(=O)c1cccc2ccccc12)N1CCN(c2ccc(Br)cn2)CC1` [Compound 13i], the “hM1 antagonist activity in words” value at hM1 [1] was “complete loss of activity”.

`O=C(CCNS(=O)(=O)c1cccc2scnc12)N1CCN(c2ccncc2)CC1` [Compound 13j]: the “hM1 antagonist activity in words” value on hM1 [1] is “inactive”.

Consider `O=C(CCNS(=O)(=O)c1cccc2ncccc12)N1CCN(c2ccncc2)CC1` [Compound 13l], for which the “in vitro DMPK prediction of clearance” value in data set [2] is given as “high clearance”. In addition, the “CNS concentrations / CNS exposure” value in data set [3] is “undetectable”. In addition, in the data set on rat M1–5 receptors, the “selectivity for the M1 receptor over the M2–5 subtypes” value is given as “very high selectivity”. Besides, at rM1, the half-maximal effective concentration (EC50) was 180 nM.

For the molecule `O=C(CCNS(=O)(=O)c1cccc2nsnc12)N1CCN(c2ccncc2)CC1` [ML012], on hM1 [4], the IC50 was 132 nM. Moreover, in the data set with contextual freezing, the “deficits in contextual freezing” value is given as “did not induce deficits in contextual freezing”. The “effect on pilocarpine-induced seizures” value in data set [5] is “reduced pilocarpine-induced seizures”. Moreover, the “selectivity for the M1 receptor over the M2–5 subtypes” value with rat M1–5 receptors is “selectively antagonize the M1 mAChR relative to the M2–5 mAChRs”. The EC50 at rM1 was 240 nM.

The values are drawn from article PMC3434972 (Bioorganic & medicinal chemistry letters, 2011).
